Literature values as cited in patent US12630850B2, “Enzymatic break down of chlorogenic acid in sunflower-containing products” (Chapman University, priority 2022, dated 2026).

What was measured:
[1] = Kabir et al., 2014; cited from earlier work
[2] = Lai et al., 2009; cited from earlier work
[3] = p-nitrophenyl acetate, between 20° C. and 40° C.; cited from earlier work

Molecule | pKa [1] | also measured
O=C(O)/C=C/c1ccc(O)c(O)c1 [caffeic acid] | 4.5 | –
O=C(O)[C@]1(O)C[C@@H](O)[C@@H](O)[C@H](O)C1 [quinic acid] | 3.4 | –
O=C(/C=C/c1ccc(O)c(O)c1)O[C@@H]1C[C@](O)(C(=O)O)C[C@@H](O)[C@H]1O [CGA, Chlorogenic acid] | 3.6 | –
L. johnsonii: CGA esterase from L. johnsonii (Lai et al., 2009) (protein, listed as Lactobacillus johnsonii) MATTITLERDGLQLVGTREEPFGEIYDMAIIFHGFTANRNTSLLKEIANSLRDENIASVRFDFNGHGDSDGKFENMTVLNEIEDANAILNYVKTDPHVRNIYLVGHSQGGVVASMLAGLYPDLIKKVVLLAPAATLKSDALEGNTQGVTYNPDHIPDRLPFKDLTLGFYLRIAQQLPIYEVSAQFTKPVCLIHGTDDTWSPNASKKYDQIYQNSTLHLIEGADHCFSDSYQKNAVNLTTDFLQNNNAF | – | Km [2]: 53 µM
L. gasseri: CGA esterase from the bacterium L. gasseri (Fritsch et al., 2017) (protein, listed as Lactobacillus gasseri) MKLKKKKVGIYMATITIERDGLNLVGTREEPFGEIYDMAIIFHGFTANRNTPLLKEIADELRDENIASVRFDFNGHGDSDGKFENMTVLNEIEDANAILNYVKTDPHVRNIYLVGHSQGGVVASMLAGLYPDIIKKVVLLAPAATLKTDALNGSTQGVKYNPDHIPDRLPFKDLTLGFYLRIAQQLPIYEVSVHFTRPVCLIHGANDTWSPDASKKYDQVYENSTLHLVEGADHSFTDTYQKTAADLTAEFLQDNNTF | – | Temperature-dependence of activity [3]: very weak temperature-dependence
